“Also recorded” adds a separate entry of the source. Like-named read-outs stand apart in the source and are kept apart here.

One assay deals with T1, PPAR-γ (Homo sapiens, UniProt P37231).
T1 construct: endogenous in cells; host or cells: CCD-112CoN normal colon cells or HeLa cells (ATCC), nuclear extract
T1 sequence (P37231 1-505): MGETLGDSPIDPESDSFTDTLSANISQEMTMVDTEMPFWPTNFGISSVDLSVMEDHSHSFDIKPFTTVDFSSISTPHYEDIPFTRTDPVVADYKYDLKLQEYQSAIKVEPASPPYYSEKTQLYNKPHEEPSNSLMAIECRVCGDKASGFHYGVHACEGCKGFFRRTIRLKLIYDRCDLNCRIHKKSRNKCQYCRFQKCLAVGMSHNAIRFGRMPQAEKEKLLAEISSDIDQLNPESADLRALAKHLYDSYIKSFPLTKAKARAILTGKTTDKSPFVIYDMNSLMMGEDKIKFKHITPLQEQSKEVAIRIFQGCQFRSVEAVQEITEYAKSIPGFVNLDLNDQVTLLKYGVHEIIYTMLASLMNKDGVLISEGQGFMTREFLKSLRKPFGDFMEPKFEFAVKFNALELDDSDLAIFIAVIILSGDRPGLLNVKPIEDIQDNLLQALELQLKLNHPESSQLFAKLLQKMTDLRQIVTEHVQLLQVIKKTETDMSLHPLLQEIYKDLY
The assay is described as follows: PPAR-γ ELISA assay (PPAR-α,γ,δ Complete Transcription Factor Assay Kit; CCD-112CoN or Hela cells, nuclear extracts). The format is cell-based. As to the method:
To evaluate the ability of natural product extracts and compounds to induce specific binding of PPAR-γ transcription factor in nuclear extracts to immunosorbed peroxisome proliferator response element, the PPAR-α,γ,δ Complete Transcription Factor Assay Kit (Cayman Chemical Company) was used according to the kit protocol. 303 CCD-112CoN normal colon cells or Hela cells (ATCC) were treated with mace extracts or isolated compounds for 24 h, nuclear extracts were harvested using the NE-PER kit (Pierce Biotechnology), and protein content equilibrated using the Pierce BCA Protein Assay kit (Pierce Biotechnology). Specific binding was detected through quantification of absorptivity at 630 nm in a BioTek uQuant microplate reader (BioTek Instruments, Inc.). […] Licarin A derivatives 45-48 were screened through the panel of in vitro assays to evaluate their potential as antidiabetic compound leads. […] Methods for the assay were as described above.
In general terms: ELISA stands for enzyme-linked immunosorbent assay.

Another assay concerns the target T2, NFκB (Homo sapiens, UniProt Q04206).
T2 construct: endogenous in cells; host or cells: HeLa cells (ATCC), nuclear extract
The assay is described as follows: NFκB assay (EZ-Detect Transcription Factor Assay kit; TNF-α-treated HeLa cells, nuclear extracts). The format is cell-based. As to the method: To assess the ability of natural product extracts and compounds to inhibit the specific binding of activated NFκB transcription factor to the biotinylated consensus sequence, the EZ-Detect™ Transcription Factor Assay kit (Pierce Biotechnology) was used according to the kit manual and established protocol. HeLa cells (ATCC) were treated with each test sample and TNF-α, nuclear extracts harvested using the NE-PER kit (Pierce Biotechnology), and protein content equilibrated using the Pierce BCA Protein Assay kit (Pierce Biotechnology). Specific binding was detected through quantification of chemiluminescent signal in a plate reader (FLUOstar Optima, BMG Labtechnologies GmbH, Inc.).

The subject of assay [1] is HbA1C (glycated hemoglobin) expression. The assay is described as follows: Larval diabetic zebrafish assay, Western blot of HbA1C. The format is in vivo. The following applies: diabetic zebrafish larvae, 10 μM. As to the method:
(§1) Following isolation, derivatization, and analysis of compounds 41-48 through the in vitro panel of assays, the mace natural products and licarin A derivatives were investigated in the larval diabetic zebrafish assay for potential antidiabetic activity. Western blot analysis of zebrafish expression levels for glycated hemoglobin, metabolic enzymes, and molecular targets NFκB and PPAR-γ was performed to evaluate potential lead improvement and to discover possible mechanisms of action.
(§2) Wild-type zebrafish were sorted into 24-well microplates with 10 fish per well for a four-phase treatment cycle. At 72 hpf, type 2 diabetes was induced by administering 0.5 mg/mL alloxan in fish water for percutaneous absorption. After three hours of alloxan treatment, phase two of the treatment cycle was initiated by administering 10 μM doses of natural product compounds 41-43 (FIG. 4) or derivatives 45-48 (FIG. 6) with 0.01% DMSO in system water. At 78 hpf, the incubation solution was changed to 10 mg/ml D-glucose for 30 minutes, followed by a phase-four rinse in fresh system w Following the four-phase treatment cycle, zebrafish treatment groups were snap frozen in microcentrifuge tubes on dry ice, stored overnight at −80° C., thawed, and homogenized with 2 μL PBS per animal. Following centrifugation (60 minutes at 4° C. and 17,000 rpm), protein content of the homogenate supernatant was determined using the Pierce BCA Protein Assay kit (Pierce Biotechnology). Homogenates were analyzed by Western blot with equal amounts of total protein (20 μg) in each sample and using 4×LDS loading buffer (NuPAGE Life Technologies). The immunoblot samples were heated at 95° C. for 5 minutes and loaded onto NuPAGE Bis-Tris 4-12% gradient SDS-PAGE gels.
(§3) Electrophoresis was performed with NuPAGE MES SDS Running Buffer and using the XCell SureLock Mini-Cell Electrophoresis System (Life Technologies). Proteins separated on the gel were transferred to a PVDF membrane using TBST buffer. The blots were blocked in 3% BSA in TBST and subsequently probed overnight with primary antibodies (1:1000 in 1% BSA in TBST) against each target of interest. Following TBST rinses, secondary HRP-conjugated antibodies (1:2000) were applied to the membrane for 60 minutes. The HRP conjugated antibodies were detected using SuperSignal West Femto chemiluminescent substrate (Pierce Biotechnology) and immunoblot images were captured using the luminometer and Lumi Analyst 3.0 software.
(§4) Band densities were determined using ImageJ Gel Analysis to determine expression levels of each protein of interest. Expression levels of HbA1C, PPAR-γ, and NFκB were organized into a bar graphs (FIG. 5) with band densities calculated in comparison to the housekeeping gene β-actin, normalized to the untreated diabetic group (B) of zebrafish. […].
On the technique in general: In western blotting, separated proteins are transferred to a membrane and probed.

A further assay has as its system GLUT-4 expression. The assay is described as follows: Larval diabetic zebrafish assay, Western blot of GLUT-4. It is filed as in vivo. The following applies: duplicate Western blot (FIG. 11), diabetic zebrafish larvae, 10 μM. As to the method:
as §1
Wild-type zebrafish were sorted into 24-well microplates with 10 fish per well for a four-phase treatment cycle. At 72 hpf, type 2 diabetes was induced by administering 0.5 mg/mL alloxan in fish water for percutaneous absorption. After three hours of alloxan treatment, phase two of the treatment cycle was initiated by administering 10 μM doses of natural product compounds 41-43 (FIG. 4) or derivatives 45-48 (FIG. 6) with 0.01% DMSO in system water. […] Following centrifugation (60 minutes at 4° C. and 17,000 rpm), protein content of the homogenate supernatant was determined using the Pierce BCA Protein Assay kit (Pierce Biotechnology). Homogenates were analyzed by Western blot with equal amounts of total protein (20 μg) in each sample and using 4×LDS loading buffer (NuPAGE Life Technologies). […]
Electrophoresis was performed with NuPAGE MES SDS Running Buffer and using the XCell SureLock Mini-Cell Electrophoresis System (Life Technologies). […] The HRP conjugated antibodies were detected using SuperSignal West Femto chemiluminescent substrate (Pierce Biotechnology) and immunoblot images were captured using the luminometer and Lumi Analyst 3.0 software.
as §4

The subject of a further assay is PEPCK expression. Briefly: Larval diabetic zebrafish assay, Western blot of PEPCK. Particulars: duplicate Western blot (FIG. 10), diabetic zebrafish larvae, 10 μM. The format is in vivo. As to the method:
as §1, §2, §3, §4

Where [2] appears, read: Table 20 summary, read-out: NFκBIC50.
The mark [3] stands for this setting: preliminary Western blot (FIG. 5), not in replicate.

T2 sequence (Q04206 whole entry): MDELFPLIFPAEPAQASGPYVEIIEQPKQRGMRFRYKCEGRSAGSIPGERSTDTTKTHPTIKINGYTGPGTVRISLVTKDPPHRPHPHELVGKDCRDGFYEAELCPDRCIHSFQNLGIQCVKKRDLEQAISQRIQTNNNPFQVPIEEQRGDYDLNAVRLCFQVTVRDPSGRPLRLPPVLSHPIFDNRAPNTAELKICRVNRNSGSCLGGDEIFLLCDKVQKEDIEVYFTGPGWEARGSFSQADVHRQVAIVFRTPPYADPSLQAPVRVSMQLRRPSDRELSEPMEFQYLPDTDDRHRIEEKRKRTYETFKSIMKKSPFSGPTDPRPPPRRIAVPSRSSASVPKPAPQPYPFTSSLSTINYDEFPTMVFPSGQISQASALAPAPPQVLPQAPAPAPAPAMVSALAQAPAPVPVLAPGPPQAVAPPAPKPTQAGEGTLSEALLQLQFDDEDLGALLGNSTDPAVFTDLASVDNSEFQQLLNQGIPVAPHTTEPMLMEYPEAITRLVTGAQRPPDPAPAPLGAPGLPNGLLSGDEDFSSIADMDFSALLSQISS

`C/C=C/c1cc(OC)c2c(c1)[C@H](C)[C@@H](c1ccc3c(c1)OCO3)O2` [Compound 41, licarin B]: the PPAR-γ % activation at PPAR-γ (Table 14, isolates at 50 μg/mL) came to 45%; on PPAR-γ (Table 20 summary, 50 μg/mL) it was 45%. Further, the IC50 is 479 nM at NFκB (setting [2]) and 475 nM against NFκB (in vitro NFκB assay). The “HbA1C expression (band density)” value in assay [1] (setting [3]) is reported as “HbA1C levels even lower than those treated with the thiazolidinedione rosiglitazone; also recorded: excellent hypoglycemic effect”.
As for `C/C=C/c1cc(OC)c2c(c1)[C@H](C)[C@@H](c1ccc(O)c(OC)c1)O2` [Compound 42, licarin A], on PPAR-γ (50 μg/mL), the “PPAR-γ activity, % as active/effective as positive control rosiglitazone” value is listed as 81%. In addition, the PPAR-γ % activation at PPAR-γ (Table 14, isolates at 50 μg/mL) was 81%; on PPAR-γ (Table 20 summary, 50 μg/mL), 81%. In addition, the “PPAR-γ activity in vitro” value on PPAR-γ (preliminary screening, 50 μg/mL) was “moderate PPAR-Y activity”. For the same compound, the “GLUT-4 expression (band density)” value in the assay with GLUT-4 expression is recorded as “significantly increased capacities for glucose uptake”. Further, in the assay on PEPCK expression, the “PEPCK expression (band density)” value was “retained low PEPCK expression”. Moreover, the IC50 is 30.6 nM against NFκB (Table 13, tested at 50, 5, 0.5 and 0.05 μg/mL); 30.6 nM at NFκB (setting [2]); 30.6 nM on NFκB (in vitro NFκB assay). Also, the results for the “HbA1C expression (band density)” value in assay [1] (duplicate Western blot (FIG. 7)) and in assay [1] (setting [3]) were “most effective test samples for decreasing HbA1C” and “least effective of the three natural products at reducing HbA1C expression”, respectively.

The values above are taken from patent US20250011296A1, “MODULATORS OF MOLECULAR TARGETS EXPRESSED IN METABOLIC AND INFLAMMATORY DISORDERS” (Ohio State Innovation Foundation, priority 2021, published 2025).
